The text below walks through data of the supplement of paper PMC12137928.

Counter-ions that a name gives are not always drawn.

This experiment relates to HCT116. The conditions noted are these: 72 h. The essentials: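 Luminescence was read with CellTiter-Glo in HCT116 cells seeded at 250 per well in 1536-well plates. Signals were scaled between vehicle at 0% and positive control at -100%, then pattern-corrected. IC50 and maximal efficacy were obtained by fitting a four-parameter Hill equation.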

Turning to `CC(C)C(=O)OCC(=O)[C@@]12O[C@H](C3CCCCC3)O[C@@H]1C[C@H]1[C@@H]3CCC4=CC(=O)C=C[C@]4(C)[C@H]3[C@@H](O)C[C@@]12C` [Ciclesonide], the IC50 cell viability was more than 45.8 µM (ICRF193 0 nM) and more than 45.8 µM (ICRF193 200 nM).
For the molecule `CN[C@@H]1[C@@H](O)[C@@H](O[C@@H]2[C@@H](O)[C@H](O[C@H]3O[C@H](CN)[C@@H](O)[C@H](O)[C@H]3O)[C@@H](N)C[C@H]2NC(=O)[C@@H](O)CN)OC[C@]1(C)O` [Isepamicin], the IC50 cell viability (ICRF193 0 nM) is more than 45.8 µM and the IC50 cell viability (ICRF193 200 nM) is more than 45.8 µM.
With `Cc1[nH]c(=O)c(C#N)cc1-c1ccncc1` [Milrinone], the IC50 cell viability is more than 45.8 µM (ICRF193 0 nM) and more than 45.8 µM (ICRF193 200 nM).
In the case of `CC(C)COC(=O)c1ccc(N)cc1` [Isocaine], the IC50 cell viability is more than 45.8 µM (ICRF193 0 nM) and more than 45.8 µM (ICRF193 200 nM).
Take `CC(OC(=O)OC1CCCCC1)OC(=O)C1=C(CSc2nnnn2CCN(C)C)CS[C@@H]2[C@H](NC(=O)Cc3csc(N)n3)C(=O)N12` (stereo not given in full) [SCE 2174]: the IC50 cell viability was more than 45.8 µM (ICRF193 0 nM) and more than 45.8 µM (ICRF193 200 nM).
Consider `C#CC1(O)CC[C@H]2[C@@H]3CCC4=CC(=O)CC[C@@H]4[C@H]3CC[C@@]21CC` (stereo not given in full) [Norgestrel], for which the IC50 cell viability was more than 45.8 µM (ICRF193 0 nM) and more than 45.8 µM (ICRF193 200 nM).
As to `CC(C)C(=O)Oc1ccc(CO)cc1[C@H](CCN(C(C)C)C(C)C)c1ccccc1` [FESOTERODINE FUMARATE], the IC50 cell viability is, setting by setting: (ICRF193 0 nM) more than 45.8 µM; (ICRF193 200 nM) more than 45.8 µM.
With `O=[N+]([O-])c1nccn1COC(CO)C(O)CO` (stereo not given) [Doranidazole], the IC50 cell viability was more than 45.8 µM (ICRF193 0 nM) and more than 45.8 µM (ICRF193 200 nM).
On to `CC(C)(C)NCC(O)c1cc(Cl)c(N)c(Cl)c1` (stereo not given) [Clenbuterol], for which the IC50 cell viability is, setting by setting: (ICRF193 0 nM) more than 45.8 µM; (ICRF193 200 nM) more than 45.8 µM.
On to `N=C(N)NCCN1CCCCCCC1` [Guanethidine sulfate], for which the IC50 cell viability is, setting by setting: (ICRF193 0 nM) more than 45.8 µM; (ICRF193 200 nM) more than 45.8 µM.
Take `Nc1ccc(/N=N/c2ccccc2)c(N)n1` [Phenazopyridine hydrochloride]: the IC50 cell viability was more than 45.8 µM (ICRF193 0 nM) and more than 45.8 µM (ICRF193 200 nM).
Take `CC(=O)OC1CC2CCC1(C)C2(C)C` (stereo not given) [BORNYL ACETATE]: the IC50 cell viability is more than 45.8 µM (ICRF193 0 nM) and more than 45.8 µM (ICRF193 200 nM).
On to `CCOC(=O)[C@H](CS)NCCN[C@@H](CS)C(=O)OCC` [Bicisate dihydrochloride], for which the IC50 cell viability reads like this: (ICRF193 0 nM) more than 45.8 µM; (ICRF193 200 nM) more than 45.8 µM.
On to `CC(=O)O[C@H]1CC[C@@]2(C)C(=CC[C@@H]3[C@@H]2CC[C@]2(C)C(c4cccnc4)=CC[C@@H]32)C1` [Abiraterone acetate], for which the IC50 cell viability runs as follows: (ICRF193 0 nM) more than 45.8 µM; (ICRF193 200 nM) more than 45.8 µM.
Turning to `CC(C)CCON=O` [3-Methylbutyl nitrite], the IC50 cell viability runs as follows: (ICRF193 0 nM) more than 45.8 µM; (ICRF193 200 nM) more than 45.8 µM.
As to `CN(C(=O)C(Cl)Cl)c1ccc(OC(=O)c2ccco2)cc1` [Diloxanide furoate], the IC50 cell viability (ICRF193 0 nM) is more than 45.8 µM and the IC50 cell viability (ICRF193 200 nM) is more than 45.8 µM.
For the molecule `Cc1c(N)nc([C@H](CC(N)=O)NC[C@H](N)C(N)=O)nc1C(=O)N[C@H](C(=O)N[C@H](C)[C@@H](O)[C@H](C)C(=O)N[C@H](C(=O)NCCc1nc(-c2nc(C(=O)NCCCN[C@@H](C)c3ccccc3)cs2)cs1)[C@@H](C)O)[C@@H](O[C@@H]1O[C@@H](CO)[C@@H](O)[C@H](O)[C@@H]1O[C@H]1O[C@H](CO)[C@@H](O)[C@H](OC(N)=O)[C@@H]1O)c1c[nH]cn1` [Peplomycin sulfate], the IC50 cell viability was more than 45.8 µM (ICRF193 0 nM) and more than 45.8 µM (ICRF193 200 nM).
Turning to `Cc1cc2nc3c(=O)[nH]c(=O)nc-3n(C[C@H](O)[C@H](O)[C@H](O)COP(=O)(O)OP(=O)(O)OC[C@H]3O[C@@H](n4cnc5c(N)ncnc54)[C@H](O)[C@@H]3O)c2cc1C` [Flavin adenine dinucleotide disodium salt hydrate], the IC50 cell viability by setting is: (ICRF193 0 nM) more than 45.8 µM; (ICRF193 200 nM) more than 45.8 µM.
On to `Cc1ccc(NC(=O)C2(c3ccc4c(c3)OC(F)(F)O4)CC2)nc1-c1cccc(C(=O)O)c1` [Lumacaftor], for which the IC50 cell viability was more than 45.8 µM (ICRF193 0 nM) and more than 45.8 µM (ICRF193 200 nM).
Turning to `CCCCOc1ccc(CC(=O)NO)cc1` [Bufexamac], the IC50 cell viability by setting is: (ICRF193 0 nM) more than 45.8 µM; (ICRF193 200 nM) more than 45.8 µM.
For `COc1cc2nc(N3CCN(C(=O)C4CCCO4)CC3)nc(N)c2cc1OC` (stereo not given) [Terazosin hydrochloride], the IC50 cell viability is more than 45.8 µM (ICRF193 0 nM) and more than 45.8 µM (ICRF193 200 nM).
Regarding `O=S(=O)(O)c1cc(O)ccc1O` [Dobesilate Calcium], the IC50 cell viability was more than 45.8 µM (ICRF193 0 nM) and more than 45.8 µM (ICRF193 200 nM).
In the case of `NCC1(CC(=O)O)CCCCC1` [Gabapentin], the IC50 cell viability (ICRF193 0 nM) was more than 45.8 µM and the IC50 cell viability (ICRF193 200 nM) was more than 45.8 µM.
As for `C[C@]12CC[C@@H]3c4ccc(O)cc4CC[C@H]3[C@@H]1CC[C@@H]2OC(=O)CCC1CCCC1` [Estradiol cypionate], the IC50 cell viability is, setting by setting: (ICRF193 0 nM) more than 45.8 µM; (ICRF193 200 nM) more than 45.8 µM.
In the case of `O=C(NC1CCN(CCc2c[nH]c3ccccc23)CC1)c1ccccc1` [Indoramin hydrochloride], the IC50 cell viability by setting is: (ICRF193 0 nM) more than 45.8 µM; (ICRF193 200 nM) more than 45.8 µM.
